# Reference: patent US6951733B2, “Method for testing drug susceptibility of Mycobacterium tuberculosis” (priority 2000, dated 2005)
# “And” between values parts separate entries of the source, which are not always exact repeats. Identical values can stand only once. Like-named read-outs stand apart in the source and are kept apart here.
# Experiments:
# [1] = test system: ten strains previously identified as INH-resistant; test: microbe, parasite or virus in culture; assay type: cell-based, M. tuberculosis; conditions: Mycobacterium tuberculosis, HSTB agar; greater than 3.2 eight strains, 1.6 one strain
# [2] = test system: 13 M. tuberculosis pan-susceptible strains; test: MIC determination on HSTB agar, susceptible strains; assay type: cell-based
# [3] = test system: strain 9719; test: microbe, parasite or virus in culture; assay type: cell-based, M. tuberculosis; conditions: read-out: MIC (μg/ml) BACTEC
# [4] = test system: 55 M. tuberculosis clinical isolates; assay type: cell-based
# [5] = test system: strain 9719; assay type: cell-based, M. tuberculosis; conditions: for Proportions (%%) of resistant bacteria as determined by agar plates containing the drug (μg/ml) 300 / Proportions (%%) of resistant bacteria as determined by agar plates containing the drug (μg/ml) 900 / Proportions (%%) of resistant bacteria as determined by agar plates containing the drug (μg/ml) 1200: strain 9719
# [6] = test system: strain H37Rv; assay type: cell-based, M. tuberculosis
# [7] = strains Susceptible by the BACTEC 300 μg/ml
# [8] = strains Susceptible by the BACTEC 900 μg/ml
# [9] = 0% of resistant bacteria incorporated
# [10] = 10% of resistant bacteria incorporated
# [11] = 25% of resistant bacteria incorporated
# [12] = 50% of resistant bacteria incorporated
# [13] = 100% of resistant bacteria (resistant mutant)
compound,measurement,setting,value
"NNC(=O)c1ccncc1 [INH, isoniazid]",MIC,[1],> 3.2 µg/mL
same,critical concentration for detection of the high level of resistance,[2],1.0 µg/mL
same,critical concentration for detection of the low level of resistance,[2],0.2 µg/mL
"NC(=O)c1cnccn1 [PZA, pyrazinamide]",MIC,"[3]; Mycobacterium tuberculosis, 9719, pH 6, strain 9719, 0% of resistant bacteria incorporated",≤ 100 µg/mL
same,MIC,"[3]; Mycobacterium tuberculosis, 9719, pH 6, strain 9719, 10% of resistant bacteria incorporated",> 900 µg/mL
same,MIC,"[3]; Mycobacterium tuberculosis, 9719, pH 6, strain 9719, 25% of resistant bacteria incorporated",> 900 µg/mL
same,MIC,"[3]; Mycobacterium tuberculosis, 9719, pH 6, strain 9719, 50% of resistant bacteria incorporated",> 900 µg/mL
same,"Number of strains by the agar proportion method, 900 μg/ml Resistant",[4],27
same,"Number of strains by the agar proportion method, 1200 μg/ml Resistant",[4],27 and 26
same,"Number of strains by the agar proportion method, 900 μg/ml Resistant",[4]; [7],0
same,"Number of strains by the agar proportion method, 1200 μg/ml Resistant",[4]; [7],0
same,"Number of strains by the agar proportion method, 900 μg/ml Resistant",[4]; [8],2
same,"Number of strains by the agar proportion method, 1200 μg/ml Resistant",[4]; [8],1
same,growth in the agar medium with the drug,"[5]; pansusceptible strain 9719, all drug-concentrations (300, 900, 1200 μg/ml)",completely inhibited
same,Proportions (%%) of resistant bacteria as determined by agar plates containing the drug (μg/ml) 300,[5]; [9],0%
same,Proportions (%%) of resistant bacteria as determined by agar plates containing the drug (μg/ml) 900,[5]; [9],0%
same,Proportions (%%) of resistant bacteria as determined by agar plates containing the drug (μg/ml) 1200,[5]; [9],0%
same,Proportions (%%) of resistant bacteria as determined by agar plates containing the drug (μg/ml) 300,[5]; [10],13.8%
same,Proportions (%%) of resistant bacteria as determined by agar plates containing the drug (μg/ml) 900,[5]; [10],8.6%
same,Proportions (%%) of resistant bacteria as determined by agar plates containing the drug (μg/ml) 1200,[5]; [10],8.6%
same,Proportions (%%) of resistant bacteria as determined by agar plates containing the drug (μg/ml) 300,[5]; [11],18.1%
same,Proportions (%%) of resistant bacteria as determined by agar plates containing the drug (μg/ml) 900,[5]; [11],16.2%
same,Proportions (%%) of resistant bacteria as determined by agar plates containing the drug (μg/ml) 1200,[5]; [11],16.5%
same,Proportions (%%) of resistant bacteria as determined by agar plates containing the drug (μg/ml) 300,[5]; [12],35.9%
same,Proportions (%%) of resistant bacteria as determined by agar plates containing the drug (μg/ml) 900,[5]; [12],36.9%
same,Proportions (%%) of resistant bacteria as determined by agar plates containing the drug (μg/ml) 1200,[5]; [12],40.0%
same,Proportions (%%) of resistant bacteria as determined by agar plates containing the drug (μg/ml) 300,[5]; [13],97.8%
same,Proportions (%%) of resistant bacteria as determined by agar plates containing the drug (μg/ml) 900,[5]; [13],96.1%
same,Proportions (%%) of resistant bacteria as determined by agar plates containing the drug (μg/ml) 1200,[5]; [13],86.2%
same,MIC (μg/ml) Agar,[6],900 µg/mL and >1200 µg/mL
